Source: patent publication US6037333A, “Microbe-inhibiting compositions” (Trustees of Tufts College, priority 1998, dated 2000)
“Also recorded” adds a separate entry of the source.

Columns and labels:
[1] = molecular target: mannose binding protein (MBP) of Acanthamoeba (Acanthamoeba castellanii, UniProt Q6J288); assay: Solid-phase assay of 35S-labeled Acanthamoeba binding to Man-BSA coated wells; set-up: species or system Acanthamoeba strain MEEI 0184 (A. castellani); settings: for Inhibition of amoebic binding to Man-BSA / affinity of amoebic lectin: no concentration stated; for Inhibition of Acanthamoeba binding to Man-BSA: at 100 mM
Excerpt: The Acanthamoeba strain MEEI 0184 (A. castellani based on morphological characteristics) was derived from an infected human cornea and used throughout this study. ATCC strain 30868 should have similar properties. The parasites were axenically cultured in PYG medium. A solid-phase assay characterized the sugar binding properties of the mannose binding protein (MBP) of Acanthamoeba (Z. Yang et al., Infect. Immun. 65:439-445, 1997). Briefly, wells of microtiter plates were coated with bovine serum albumin-α-D-mannopyranosyl phenylisothiocyanate (Man-BSA, 15-25 moles of α-D-mannopyranoside/mole albumin, 0.03 μg/ml, 50μl/well in 0.1 M sodium carbonate buffer, pH 9.6, 4° C. overnight). Nonspecific binding was blocked with 1% BSA in phosphate buffered saline (PBS, 1 hour, room temperature). After adding a 50-μl aliquot of ^35 S-labeled Acanthamoeba (5×10^6 cells/ml in PBS; 1 to 2 cpm/parasite, >95% trophozoites) to each well, the plates were incubated for 2 hours at room temperature. After rinsing the cells with PBS to remove unbound Acanthamoeba, 0.1 ml of 2% sodium dodecyl sulfate (SDS) was added to each well, and the radioactivity in aliquots of solubilized material was determined in a scintillation counter.

Acanthamoeba [2] = assay: Acanthamoeba-induced CPE assay, primary cultures of corneal epithelium; format: cell-based; settings: primary cultures as target cells
Protocol: In vitro cytopathic assays were performed using cell cultures of corneal epithelium as target cells. Primary cell cultures of rabbit corneal epithelium were prepared according to published protocols (M. M. Jumblatt, Invest. Opthalmol. Visual Sci. 24:1139-43, 1983) using rabbit eyes from Pel-Freez Biologicals (N. Panjwani et al., Invest. Opthalmol. Visual Sci. 31:689-695, 1990) (Rogers, AK). Generally, seventy-five eyes were processed at a time. Primary cultures have limited life span and can only be passaged 2 to 3 times without significant alteration in cell morphology.
(§1) To characterize the role of carbohydrate-mediated host-parasite interactions in the Acanthamoeba-induced cytotoxicity of host cells, in vitro cytopathic assays were performed using both primary and immortalized cultures of corneal epithelium as host cells. Immortalized cells were assayed as confluent cultures in 24-well plates, and primary cells were assayed as confluent cells in 35-mm dishes or 6-well plates.
The parasites (>95% trophozoites) were rinsed three times in a serum-free Eagle's minimum essential medium supplemented with 0.4% bovine serum albumin (SFB) and aliquots of the parasite suspension (0.2×10^5 to 1×10^6 parasites/ml SFB medium, 300 μl/well for 24-well plates and 500 μl/well for 6-well plates or 35-mm dishes) were added to wells of confluent epithelial cultures which had been rinsed and preincubated in SFB medium for 2 hours. The plates were incubated at 37° C. in a CO2 incubator and periodically examined under a phase-contrast microscope for the presence of cell-free plaques in the monolayer for up to 28-30 hours. Control wells contained host cells without the parasites. At the end of the incubation period, the cultures were stained with Giemsa (Diff-Quik, Dade Diagnostic Inc., Aguada, PR). Approximate cell density in each well was estimated by scanning the stained plates in a calibrated, computer-assisted Bio-Image Scanner (Millipore, Ann Arbor, Mich.). Cytopathic effect (CPE) was expressed as percentage of the optical density by the following formula: [formula]
Primary cultures were less susceptible to amoeba-induced CPE, requiring 1×10^6 parasites/ml to completely destroy the monolayer within 24 hours. This parasite concentration was five times higher than that required to produce the same effect when immortalized cultures were used as target host cells.

[3] = test system: Acanthamoeba-conditioned medium (ACM); assay: CPE assay with Acanthamoeba-conditioned medium (ACM); format: cell-based
Protocol: To determine whether the mechanism modulating the CPE produced by intact amoeba and amoeba-conditioned medium (ACM) are distinct, CPE and assays were also performed using ACM in the presence and the absence of saccharides. To produce ACM, exponentially growing parasites (>95% trophozoites) in PYG media (Proteose Peptone-yeast extract-glucose , J. T. Bornes et al., J. Parasitol. 56:904-906, 1970) were rinsed twice with SFB medium and incubated in serum-free SFB medium at concentrations between 2×10^5 to 1×10^6 cells/ml in a CO2 incubator for 24 hours. After removing the parasites by centrifugation, each supernatant was analyzed for its ability to induce CPE. Saccharides (α-Man and GIcNAc, 50 mM) were added either to the ACM after it was produced or to serum-free medium used to produce an ACM. The ACM produced in the presence of the saccharides was also analyzed after removal of the saccharides by centrifugation through Centricon 3 microconcentrators (Amicon Inc., Beverly, Mass.).
To determine the role of the parasitic secretory factors in the cytopathogenic mechanism, chromium release and CPE assays were performed using ACM. In this study, parasites were incubated in the SFB media for 24 hours, centrifuged to remove parasites and the conditioned medium was tested for its ability to produce cytolysis and CPE. The ACM produced remarkable CPE. […] Approximately 6 to 8 hours following the incubation of the monolayer with the ACM, the cell sheet at the edges of the monolayer began to lift and roll inwards and eventually the entire monolayer lifted en bloc from the dish. These observations were similar to those seen when the monolayers were incubated with trophozoites in the presence of α-Man. Unlike the CPE induced by intact amoeba, the CPE induced by the ACM was not inhibited by either α-Man or GlcNAc when the sugars were added to the ACM after it was produced. In the next set of experiments, ACM was produced in the presence of α-Man or GIcNAc and was tested for CPE-inducing activity. […] In addition, the filtrate and retentate obtained after filtering the ACM in Centricon 3 microconcentrators were tested for CPE-inducing activity. When the ACM was produced in the absence of either sugar, substantially all of the CPE-inducing activity was found in the retentate obtained after Centricon filtration.

Acanthamoeba [4] = assay: Acanthamoeba-induced cytopathic effect (CPE) assay, immortalized corneal epithelial cultures; format: cell-based; settings: for Inhibition of amoeba-induced CPE: no concentration stated
Protocol: Corneal epithelial cells with extended life span were also produced.
as §1
The plates were incubated at 37° C. in a CO2 incubator and periodically examined under a phase-contrast microscope for the presence of cell-free plaques in the monolayer for up to 28-30 hours. Control wells contained host cells without the parasites. At the end of the incubation period, the cultures were stained with Giemsa (Diff-Quik, Dade Diagnostic Inc., Aguada, PR). Approximate cell density in each well was estimated by scanning the stained plates in a calibrated, computer-assisted Bio-Image Scanner (Millipore, Ann Arbor, Mich.). Cytopathic effect (CPE) was expressed as percentage of the optical density by the following formula: [formula]
The CPE assays were performed in the SFB media containing one or more saccharides to be tested.
After staining with Giemsa, percent cell loss in each well was calculated based on the optical density in each well.

Acanthamoeba [5] = assay: Adhesion of amoebae to corneal epithelial cell monolayer; format: cell-based; settings: saccharide present in media; listed as GlcNAc
Acanthamoeba [6] = assay: 51Cr release assay of amoeba-induced cytolysis of corneal epithelium; format: cell-based
Protocol: Chromium release experiments were performed to confirm the absence or occurrence of cytolysis. Visually, cell plaques or bare spots in a culture can indicate either cell loss by cytolysis, or separation of the cell from the culture surface, wherein detached cells, although initially viable, subsequently die. Cell lysis was quantified by measuring ^51 Cr release from prelabeled cells. After incubating confluent monolayer cultures of corneal epithelium in 24-well plates in cell culture medium containing Na^51 CrO4 (460 mCi/mg, 12 μCi/ml) for 18-20 hours, the cells were thoroughly rinsed and incubated with Acanthamoeba (1×10^6 parasites/ml SFB media). The four groups were (i) Acanthamoeba in media alone, (ii) Acanthamoeba in media containing α-Man, (iii) Acanthamoeba in media containing GlcNAc, and (iv) Acanthamoeba condition media. When approximately 50-70% cell loss occurred based on phase contrast microscopy, aliquots of cell-free conditioned medium from each well were analyzed. Supernatants from the four wells in each group were pooled before analysis. Percent specific release was calculated using E/T×100, where E is CPM released in test well minus CPM released in control (parasite-free) well and T is the total CPM (CPM cells+CPM supernatant in control wells). "CPM cells" was determined by incubating control wells with 0.5% Triton X-100. Conditioned media from each well was also analyzed for lactate dehydrogenase (LDH) release using an LDH assay kit (Sigma).

proteinases E1, E2 = assay: Zymography with proteinase inhibitors, media conditioned by epithelial cells alone; format: biochemical, rabbit; settings: inhibitor 1 mM
Protocol: (§2) To characterize the mechanism by which the mannose-mediated host-parasite interactions influence the amoeba-induced cytolysis and/or cytopathic effect, conditioned media obtained by incubating amoebae with primary cultures of corneal epithelium in the presence and absence of α-Man for 6 to 8 hours were analyzed by zymography. Media conditioned by only Acanthamoeba or only epithelial cells were also analyzed. Zymography was performed using separating gels containing 10% acrylamide and 2 mg/ml gelatin, essentially as described by D. E. Kleiner et al. (Anal Biochem. 218:325-329, 1994). Samples were diluted in the electrophoresis sample buffer (U. K. Laemmli, Nature 227:680-685, 1970) without mercaptoethanol and were applied to the gels. After electrophoresis, proteinases separated on the gels were renatured by incubating the gels in 2.5% Triton X-100 in 50 mM Tris-HCl, pH 7.5 to remove SDS. After incubating the gels for 18 hours in a developing buffer (50 mM Tris-HCl, pH 7.5 containing 10 mM CaCl2), the gels were stained with Coomassie brilliant blue. Areas of digestion were visualized as non-staining regions. In some experiments, samples were pre-treated with phenylmethylsulfonyl fluoride (PMSF, 1 mM), an inhibitor of […] for one hour prior to electrophoresis, or 1,10-phenanthroline (1 mM), an inhibitor of metalloproteinases, was added to the developing buffer.

[7] = molecular target: proteinases P1, P2, P3, P4; assay: Zymography with proteinase inhibitors, components P1-P4; format: biochemical, Acanthamoeba; settings: inhibitor 1 mM
Protocol: as §2

mannose binding protein (MBP) of Acanthamoeba, sequence (Q6J288 entry or part of it): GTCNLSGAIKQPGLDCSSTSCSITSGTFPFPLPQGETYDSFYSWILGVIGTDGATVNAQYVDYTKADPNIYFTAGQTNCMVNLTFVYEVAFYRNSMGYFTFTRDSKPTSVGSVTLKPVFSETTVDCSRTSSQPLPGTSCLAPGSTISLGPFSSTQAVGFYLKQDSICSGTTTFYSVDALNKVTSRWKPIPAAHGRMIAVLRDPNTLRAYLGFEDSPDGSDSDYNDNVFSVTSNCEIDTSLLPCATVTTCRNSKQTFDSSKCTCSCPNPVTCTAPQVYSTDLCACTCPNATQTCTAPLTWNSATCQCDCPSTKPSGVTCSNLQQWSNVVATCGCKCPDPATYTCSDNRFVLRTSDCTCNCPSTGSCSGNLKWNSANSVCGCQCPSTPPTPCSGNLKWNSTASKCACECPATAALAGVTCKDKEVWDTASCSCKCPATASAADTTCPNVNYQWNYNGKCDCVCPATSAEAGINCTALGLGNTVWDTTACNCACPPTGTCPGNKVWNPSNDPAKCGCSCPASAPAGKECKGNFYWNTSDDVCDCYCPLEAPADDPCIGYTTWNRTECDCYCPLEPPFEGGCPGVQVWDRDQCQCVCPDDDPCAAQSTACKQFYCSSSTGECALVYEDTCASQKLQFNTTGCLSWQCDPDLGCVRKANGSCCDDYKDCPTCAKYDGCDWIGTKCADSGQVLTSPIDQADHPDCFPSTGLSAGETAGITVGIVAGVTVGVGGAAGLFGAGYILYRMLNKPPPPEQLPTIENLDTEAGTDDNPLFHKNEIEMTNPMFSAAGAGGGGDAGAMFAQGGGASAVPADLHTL

CC(=O)N[C@H]1C(O)O[C@H](CO)[C@@H](O)[C@@H]1O (stereo partly drawn) [N-acetyl-D-glucosamine]
Inhibition of amoebic binding to Man-BSA / affinity of amoebic lectin ([1]; listed as GlcNAc): weak inhibitor | inhibition at 50000 µM ([1]; read-out: Inhibition of binding, % at indicated conc.): 50% | Inhibition of amoeba-induced CPE (Acanthamoeba [2]): inhibited | CPE-inducing activity of ACM produced with saccharide, after removal of saccharide by Centricon filtration ([3]; saccharide 50 mM): did not have CPE-inducing activity | CPE-inducing activity of ACM produced in SFB containing the saccharide ([3]; saccharide 50 mM in medium used to produce ACM): did not induce CPE | Inhibition of ACM-induced CPE ([3]; sugar (50 mM) added to the ACM after it was produced): not inhibited | inhibition at 310 µM (Acanthamoeba [4]; Acanthamoeba, in Oryctolagus cuniculus, at 0.31 mM, read-out: Inhibition of cytopathic effect (% inhib. at indicated conc.)): 60% | Inhibition of amoeba-induced CPE (Acanthamoeba [4]; listed as GlcNAc): inhibits CPE; also recorded: potent inhibitor; also recorded: nearly identical | Attachment of cell layer to culture dish (Acanthamoeba [4]; primary and immortalized cultures, entire assay period of 28 hours): remained firmly adhered | Amoeba-induced cytolysis of corneal epithelial cells (microscopy, words) (Acanthamoeba [4]; saccharide present in media): little evidence of cytolysis | Adhesion of amoebae to the cell monolayer in presence of saccharide (Acanthamoeba [5]): poor inhibitor; also recorded: adhered tightly | Percentage specific 51Cr release (Acanthamoeba [6]; Acanthamoeba 1×10^6 parasites/ml in media containing the saccharide, media alone about 100): ~80% | Inhibition of amoeba-induced cytolysis (Acanthamoeba [6]; fifty millimolar, 51Cr release): 10-20%

O=S(=O)(F)Cc1ccccc1 [PMSF, phenylmethylsulfonyl fluoride]
Susceptibility of component E1 (93 kD) to inhibitor (proteinases E1, E2): resistant | Susceptibility of component E2 (63 kD) to inhibitor (proteinases E1, E2): resistant | Susceptibility of component P1 (230 kD) to inhibitor [7]: susceptible | Susceptibility of component P2 (97 kD) to inhibitor [7]: susceptible | Susceptibility of component P3 (80 kD) to inhibitor [7]: resistant | Susceptibility of component P4 (55 kD) to inhibitor [7]: susceptible

N[C@@H]1C(O)O[C@H](CO)[C@@H](O)[C@@H]1O (stereo partly drawn) [D-mannosamine]
Toxicity to the epithelium (corneal epithelium): Toxic | Inhibition of Acanthamoeba binding to Man-BSA [1]: did not inhibit | Inhibition of amoebic binding to Man-BSA / affinity of amoebic lectin [1]: did not inhibit | Inhibition of amoeba-induced CPE (Acanthamoeba [4]): did not inhibit

N[C@H]1C(O)O[C@H](CO)[C@@H](O)[C@@H]1O (stereo partly drawn) [D-glucosamine]
Toxicity to the epithelium (corneal epithelium): Toxic | Inhibition of Acanthamoeba binding to Man-BSA [1]: did not inhibit
